# Results from US7138361B2, “Herbicidal heterocycles” (E. I. du Pont de Nemours and Company, priority 2000, dated 2006).
# What was measured:
# Assay type in all cases: in vivo
# [1] = test system: smallflower flatsedge (Cyperus difformis); experiment: Test C flooded paddy test; settings: for Flatsedge plant response rating: Flooded Paddy, scale 0 to 100, 0 no effect, 100 complete control; for Plant response rating, Flatsedge / Plant response rating (scale 0 to 100), Flatsedge: flooded paddy test; for Plant response rating, Flatsedge: scale 0 to 100 (0 no effect, 100 complete control)
# Outline: (§1)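 Ratings come from visual comparison with control plants after 12 to 14 days in the greenhouse. Each species was at the 2-leaf stage when the flooded paddy was treated. Scores run from 0, meaning no effect, to 100, meaning complete control.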
# [2] = test system: barnyardgrass (Echinochloa crus-galli); experiment: Test C flooded paddy test; settings: for Barnyardgrass plant response rating: scale 0 to 100, 0 no effect, 100 complete control
# Outline: as §1
# [3] = test system: duck salad (Heteranthera limosa); experiment: Test C flooded paddy test; settings: for Ducksalad plant response rating: scale 0 to 100, 0 no effect, 100 complete control
# Outline: as §1
# [4] = test system: pigweed (Amaranthus retroflexus); experiment: Test C preemergence
# Text: (§2) Seeds of plant species selected from bermudagrass (Cynodon dactylon), Surinam grass (Brachiaria decumbens), cocklebur (Xanthium strumarium), corn (Zea mays), crabgrass (Digitaria sanguinalis), woolly cupgrass (Eriochloa villosa), giant foxtail (Setaria faberii), goosegrass (Eleusine indica), johnsongrass (Sorghum halepense), kochia (Kochia scoparia), lambsquarters (Chenopodium album), morningglory (Ipomoea hederacea), yellow nutsedge (Cyperus esculentus), pigweed (Amaranthus retroflexus), common ragweed (Ambrosia elatior), soybean (Glycine max) and velvetleaf (Abutilon theophrasti) were planted and treated preemergence with test chemicals formulated in a non-phytotoxic solvent mixture which included a surfactant.
# (§3) At the same time, plants selected from these crop and weed species and also winter barley (Hordeum vulgare), blackgrass (Alopecurus myosuroides), canary grass (Phalaris minor), chickweed (Stellaria media), downy brome (Bromus tectorum), green foxtail (Setaria viridis), Italian ryegrass (Lolium multiflorum), wheat (Triticum aestivum), wild oat (Avena fatua) and windgrass (Apera spica-venti) were treated with postemergence applications of some of the test chemicals formulated in the same manner. Plants ranged in height from 2 to 18 cm (1- to 4-leaf stage) for postemergence treatments. Plant species in the flooded paddy test consisted of rice (Oryza saliva), smallflower flatsedge (Cyperus difformis), duck salad (Heteranthera limosa) and barnyardgrass (Echinochloa crus-galli) grown to the 2-leaf stage for testing. Treated plants and controls were maintained in a greenhouse for 12 to 14 days, after which time all species were compared to controls and visually evaluated. Plant response ratings, summarized in Table C, are based on a scale of 0 to 100 where 0 is no effect and 100 is complete control. A dash (-) response means no test result.
# [5] = test system: giant foxtail (Setaria faberii); experiment: Test C preemergence
# Text: as §2, §3
# corn (Zea mays) = experiment: Test C preemergence
# Text: as §2, §3
# kochia (Kochia scoparia) = experiment: Test C preemergence
# Text: as §2, §3
# [6] = test system: lambsquarters (Chenopodium album); experiment: Test C preemergence
# Text: as §2, §3
# Nightshade = experiment: Test C preemergence
# Text: as §2, §3
# [7] = test system: Surinam grass (Brachiaria decumbens); experiment: Test C preemergence
# Text: as §2, §3
# soybean (Glycine max) = experiment: Test C preemergence
# Text: as §2, §3
# [8] = test system: woolly cupgrass (Eriochloa villosa); experiment: Test C preemergence
# Text: as §2, §3
# [9] = test system: crabgrass (Digitaria sanguinalis); experiment: Test C preemergence
# Text: as §2, §3
# [10] = Flooded Paddy, Rate 500 g/ha, scale 0 to 100
# [11] = Flooded Paddy, Rate 1000 g/ha, scale 0 to 100
# [12] = flooded paddy test, Rate 62 g/ha, scale 0 to 100 (0 no effect, 100 complete control)
# [13] = flooded paddy test, Rate 125 g/ha, scale 0 to 100 (0 no effect, 100 complete control)
# [14] = flooded paddy test, Rate 16 g/ha, visually evaluated after 12 to 14 days, 0 = no effect, 100 = complete control
# [15] = flooded paddy test, under head Rate 16 g/ha, (own rate not given), after 12 to 14 days
# [16] = Rate 62 g/ha, scale 0 to 100, 0 no effect, 100 complete control
# [17] = preemergence, Rate 31 g/ha, scale 0 to 100
# [18] = preemergence, Rate 125 g/ha, scale 0 to 100, 0 no effect, 100 complete control
smiles,measurement,setting,value
"CC(C)(C)c1ccn(C2CCN(c3cccc(C(F)(F)F)c3)C2=O)n1 (stereo not drawn) [Example 3, 3-[3-(1,1-dimethylethyl)-1H-pyrazol-1-yl]-1-[3-(trifluoromethyl)phenyl]-2-pyrrolidinone]",Flatsedge plant response rating,[1]; Rate 250 g/ha,100
same,Flatsedge plant response rating,[1]; Rate 500 g/ha,100
same,Flatsedge plant response rating,"[1]; rate of this column group stands in head line r653, not shown (group before Rate 500 g/ha)",100
same,"Plant response rating, Flatsedge",[1]; Rate 62 g/ha,90
same,"Plant response rating, Flatsedge",[1]; Rate 125 g/ha,100
same,"Plant response rating, Barnyardgrass",[2]; [10],100
same,"Plant response rating, Barnyardgrass",[2]; [11],100
same,Barnyardgrass plant response rating,"[2]; Flooded Paddy, Rate 250 g/ha",100
same,"Plant response rating, Barnyardgrass",[2]; [12],20
same,"Plant response rating, Barnyardgrass",[2]; [13],80
same,"Plant response rating, Ducksalad",[3]; [10],90
same,"Plant response rating, Ducksalad",[3]; [11],100
same,Ducksalad plant response rating,"[3]; Flooded Paddy, Rate 250 g/ha",80
same,"Plant response rating, Ducksalad",[3]; [12],20
same,"Plant response rating, Ducksalad",[3]; [13],80
COc1cc(N2CCC(n3ccc(C(C)(C)C)n3)C2=O)ccc1C (stereo not drawn) [Compound 42],Flatsedge plant response rating,[1]; Rate 250 g/ha,100
same,Flatsedge plant response rating,[1]; Rate 500 g/ha,100
same,"Plant response rating, Flatsedge",[1]; Rate 62 g/ha,100
same,"Plant response rating, Flatsedge",[1]; Rate 125 g/ha,100
same,"Plant response rating (scale 0 to 100), Flatsedge","[1]; Rate 16 g/ha, visually evaluated after 12 to 14 days, 0 = no effect, 100 = complete control",100
same,"Plant response rating (scale 0 to 100), Flatsedge","[1]; under head Rate 16 g/ha, (own rate not given), after 12 to 14 days",100
same,Barnyardgrass plant response rating,"[2]; Flooded Paddy, Rate 250 g/ha",100
same,Barnyardgrass plant response rating,"[2]; Flooded Paddy, Rate 500 g/ha",100
same,"Plant response rating, Barnyardgrass",[2]; [12],100
same,"Plant response rating, Barnyardgrass",[2]; [13],100
same,"Plant response rating (scale 0 to 100), Barnyardgrass",[2]; [14],70
same,"Plant response rating (scale 0 to 100), Barnyardgrass",[2]; [15],50
same,Ducksalad plant response rating,"[3]; Flooded Paddy, Rate 250 g/ha",100
same,Ducksalad plant response rating,"[3]; Flooded Paddy, Rate 500 g/ha",100
same,"Plant response rating, Ducksalad",[3]; [12],100
same,"Plant response rating, Ducksalad",[3]; [13],100
same,"Plant response rating (scale 0 to 100), Ducksalad",[3]; [14],90
same,"Plant response rating (scale 0 to 100), Ducksalad",[3]; [15],80
same,"Plant response rating, Pigweed",[4]; [16],60
same,"Plant response rating, Pigweed",[4]; [17],0
same,"Plant response rating, Pigweed",[4]; [18],100
same,"Plant response rating, Foxtail, Giant",[5]; [16],50
same,"Plant response rating, Foxtail, Giant",[5]; [17],30
same,"Plant response rating, Foxtail, Giant",[5]; [18],100
same,"Plant response rating, Corn",corn (Zea mays); [16],20
same,"Plant response rating, Corn",corn (Zea mays); [17],0
same,"Plant response rating, Corn",corn (Zea mays); [18],40
same,"Plant response rating, Kochia",kochia (Kochia scoparia); [16],50
same,"Plant response rating, Kochia",kochia (Kochia scoparia); [17],20
same,"Plant response rating, Kochia",kochia (Kochia scoparia); [18],100
same,"Plant response rating, Lambsquarters",[6]; [16],100
same,"Plant response rating, Lambsquarters",[6]; [17],20
same,"Plant response rating, Lambsquarters",[6]; [18],100
same,"Plant response rating, Nightshade","Nightshade; Rate 31 g/ha, scale 0 to 100",0
same,"Plant response rating, Nightshade",Nightshade; [16],0
same,"Plant response rating, Nightshade","Nightshade; Rate 125 g/ha, scale 0 to 100, 0 no effect, 100 complete control",100
same,"Plant response rating, Surinam grass",[7]; [16],70
same,"Plant response rating, Surinam grass",[7]; [17],0
same,"Plant response rating, Surinam grass",[7]; [18],90
same,"Plant response rating, Soybean",soybean (Glycine max); [16],50
same,"Plant response rating, Soybean",soybean (Glycine max); [17],20
same,"Plant response rating, Soybean",soybean (Glycine max); [18],50
same,"Plant response rating, Cupgrass, Woolly",[8]; [16],20
same,"Plant response rating, Cupgrass, Woolly",[8]; [17],0
same,"Plant response rating, Cupgrass, Woolly",[8]; [18],100
same,"Plant response rating, Crabgrass",[9]; [16],90
same,"Plant response rating, Crabgrass",[9]; [17],40
same,"Plant response rating, Crabgrass",[9]; [18],100
CC1(c2ccn(C3OCN(c4cccc(OC(F)(F)F)c4)C3=O)n2)CC1 (stereo not drawn) [Compound 69],Flatsedge plant response rating,[1]; Rate 250 g/ha,100
same,Flatsedge plant response rating,[1]; Rate 500 g/ha,100
same,"Plant response rating, Flatsedge",[1]; Rate 62 g/ha,100
same,"Plant response rating, Flatsedge",[1]; Rate 125 g/ha,100
same,Barnyardgrass plant response rating,"[2]; Flooded Paddy, Rate 250 g/ha",100
same,Barnyardgrass plant response rating,"[2]; Flooded Paddy, Rate 500 g/ha",100
same,"Plant response rating, Barnyardgrass",[2]; [12],30
same,"Plant response rating, Barnyardgrass",[2]; [13],30
same,Ducksalad plant response rating,"[3]; Flooded Paddy, Rate 250 g/ha",0
same,Ducksalad plant response rating,"[3]; Flooded Paddy, Rate 500 g/ha",20
same,"Plant response rating, Ducksalad",[3]; [12],0
same,"Plant response rating, Ducksalad",[3]; [13],0
CCC(CC)c1ccn(C2OCN(c3cccc(OC(F)(F)F)c3)C2=O)n1 (stereo not drawn) [Compound 68],Flatsedge plant response rating,[1]; Rate 250 g/ha,100
same,Flatsedge plant response rating,[1]; Rate 500 g/ha,100
same,"Plant response rating, Flatsedge",[1]; Rate 62 g/ha,100
same,"Plant response rating, Flatsedge",[1]; Rate 125 g/ha,100
same,Barnyardgrass plant response rating,"[2]; Flooded Paddy, Rate 250 g/ha",100
same,Barnyardgrass plant response rating,"[2]; Flooded Paddy, Rate 500 g/ha",100
same,"Plant response rating, Barnyardgrass",[2]; [12],90
same,"Plant response rating, Barnyardgrass",[2]; [13],100
same,Ducksalad plant response rating,"[3]; Flooded Paddy, Rate 250 g/ha",100
same,Ducksalad plant response rating,"[3]; Flooded Paddy, Rate 500 g/ha",100
same,"Plant response rating, Ducksalad",[3]; [12],100
same,"Plant response rating, Ducksalad",[3]; [13],100
O=C1C(n2ccc(C3CC3)n2)SCN1c1cccc(C(F)(F)F)c1 (stereo not drawn) [Compound 26],Flatsedge plant response rating,[1]; Rate 250 g/ha,95
same,Flatsedge plant response rating,[1]; Rate 500 g/ha,95
same,"Plant response rating, Flatsedge",[1]; Rate 62 g/ha,90
same,"Plant response rating, Flatsedge",[1]; Rate 125 g/ha,90
same,Barnyardgrass plant response rating,"[2]; Flooded Paddy, Rate 250 g/ha",80
same,Barnyardgrass plant response rating,"[2]; Flooded Paddy, Rate 500 g/ha",100
same,"Plant response rating, Barnyardgrass",[2]; [12],0
same,"Plant response rating, Barnyardgrass",[2]; [13],50
same,Ducksalad plant response rating,"[3]; Flooded Paddy, Rate 250 g/ha",100
same,Ducksalad plant response rating,"[3]; Flooded Paddy, Rate 500 g/ha",70
same,"Plant response rating, Ducksalad",[3]; [12],0
same,"Plant response rating, Ducksalad",[3]; [13],80
